This passage reports ATP concentrations in papillary muscle after hypoxia results from US7728037B2, “Alpha-ketoglutarates of active ingredients and compositions containing same” (Sigma-Tau Industrie Farmaceutiche Riunite S.p.A., priority 2001, dated 2010).

The experiment relates to rabbit heart papillary muscle subjected to hypoxia. The experiment in a line: Metabolic tests: ATP concentrations in rabbit heart papillary muscle subjected to hypoxia after oral treatment. The format is in vivo. Conditions: 1 g/kg by mouth or equimolecular doses, three consecutive days; tissue held anoxic for 90 minutes; untreated controls 1.70±0.68 to 0.46±0.071. From the text: After three consecutive days of treatment, sections of papillary muscle were isolated from the rabbit hearts and were perfused in a thermostatized bath with a saturated solution of 100% O2.

`C[N+](C)(C)C[C@H](O)CC(=O)[O-]` [L-carnitine] gave an ATP concentrations in papillary muscle after hypoxia of 0.59 ± 0.31 µmol/g tissue.
On to L-carnitine alpha-ketoglutarate, for which the ATP concentrations in papillary muscle after hypoxia amounted to 1.48 ± 0.72 µmol/g tissue.
